Measured values taken from article PMC11795524, “Melanin-Binding-Based Discovery of Topically Instilled Carbonic Anhydrase Inhibitors for Targeted Delivery and Prolonged Action in the Eye” (Molecular Pharmaceutics, 2025).

Columns and labels:
[1] = In vitro melanin binding by microscale thermophoresis / initial fluorescence (Monolith NT.115 pico); conditions: for Melanin binding classification: class by Kd; for Kd: melanin nanoparticles 0.5 mg/mL, IF or MST mode, 68% confidence, read-out: Kd ± confidence (melanin binding)
Description: Melanin binding of the CAI-II compounds was studied with a Monolith NT.115 pico (NanoTemper Technologies GmbH, Munich, Germany) device using the method of […] et al. […] Otherwise, normalized fluorescence signals and the ratio of relative fluorescence after heating (MST mode) were used. The MST software was used in expert mode to allow heating for 30 s. […] As ligand autofluorescence may interfere with the assay, their autofluorescence values were pretested with the detector used in experiment (nanoblue or pico-red). Fluorescence of the ligand should be below 20% of melanin fluorescence. Sample aggregation and adsorption to the capillaries were used also as exclusion criteria.

[2] = target: recombinant human carbonic anhydrase II; design: method as in earlier work; conditions: stopped flow kinetics protocol; read-out: Ki against hCA II; cited from earlier work
[3] = tested on: pigmented rabbits (Chinchilla Bastard); test: IOP study in pigmented rabbits after single eye drop; assay type: in vivo, rabbit; conditions: for ratio (AUCpigm/AUCalbino) of IOP response: pigmented vs albino rabbits
Description: (§1) Five 3–5 months old albino (New Zealand White, all females) and five 3–6 months old pigmented rabbits (Chinchilla Bastard, 1 male and 4 females) were purchased from Charles River Laboratories, UK and Germany, respectively. Prior to the experiments, the rabbits were habituated to handling, and the baseline values of IOP were measured. During the experiments, rabbits weighed 2.4–4.0 kg.
(§2) First, stock solutions of CAIs (250 mg/mL) in dimethyl sulfoxide (Sigma-Aldrich, Germany) were prepared. These stock solutions were diluted with PBS (pH 7.4) to obtain 1 mg/mL (0.1%) or 10 mg/mL (1%) solutions.
(§3) The CAI solutions were tested in albino rabbits (eye drops of 0.1, and 0.5 or 1.0%) and in pigmented rabbits (0.5 or 1.0%). The novel CAI concentrations in solutions were determined based on the drug solubility with the aim to load the highest possible drug concentration to the single eye drop.
Baseline IOP of pigmented rabbits was raised with two intravitreal triamcinolone acetonide injections (Triesence 40 mg/mL, Novartis Finland Ltd.) with 1 week interval to each eye. This method[25],[26] may induce ocular hypertension even up to 60 days in rabbits.[25]
The rabbits were anesthetized with 0.4 mg/kg, s.c. medetomidine (Domitor vet 1 mg/mL, Orion Pharma, Espoo, Finland) and 20 mg/kg s.c. ketamine (Ketaminol vet 50 mg/mL, Pfizer Oy Animal Health, Espoo, Finland). Mydriasis was induced with topical tropicamide eyedrops (Oftan Tropicamid 5 mg/mL, Santen Pharmaceutical Co., Ltd., Tampere, Finland) and the ocular surface was anesthetized with oxybuprocaine eye drop (Oftan Obucain 4 mg/mL, Santen Pharmaceutical Co., Ltd., Tampere, Finland). Thereafter, intravitreal injection of triamcinolone acetonide (100 μL) was given with a 31G needle and syringe. After injection, the eyes were moisturized with carbomer gel (Viscotears 2 mg/g, Dr. Gerhard Mann chem.-pharm. Fabrik GmbH, Berlin, Germany) and the anesthesia was antagonized with 1 mg/kg atipamezole s.c. (Antisedan vet 5 mg/mL, Orion Pharma, Espoo, Finland).
After the second injection, IOP was allowed to settle for 10 days before the experiments were performed. […] Induction of ocular hypertension is presented in Appendix Figure 3. The IOP-lowering effects of the molecules were investigated sequentially, each test initiating once baseline IOP levels was attained.
(§4) The IOP levels in the rabbits were measured with a tonometer (Tonometer Pro, Icare Finland Ltd.). After baseline IOP measurements, a single eye drop (25 μL) was applied to the left eye, whereas the right eye was not treated. After eye drop instillation, the eyelids were kept open manually for 1 min. The IOP was measured from both eyes of the rabbits at 0.5, 1, 2, 3, 4, 5, 6, 7, and 8 h after eye drop instillation. In the case of the pigmented rabbits, the measurements were continued until 10 h postinstillation, and further until the IOP had returned to the normal baseline.
(§5) The CAIs were tested in the same rabbits to minimize interindividual data variation. Washout periods of at least 3 days were used between instillation of different compounds. The experiments started always at 8 a.m. to eliminate bias due to diurnal IOP fluctuation. At each time point, the pressure was measured three times with the same eye, and the average values were calculated and used in data analysis.

[4] = tested on: albino rabbits (New Zealand White); test: IOP study in albino rabbits after single eye drop; assay type: in vivo, rabbit; conditions: for AUC0-last ± SD in albino rabbits (IOP decrease vs time): single 25 μL eye drop, CAI 0.5 or 1.0%, dorzolamide 2%, n = 5
Description: as §1
as §2, with “solutions. Water-solubility of the compounds was enhanced with 2-hydroxypropyl-β-cyclodextrin (Sigma-Aldrich, Germany) (Table 1).” for “solutions.”
as §3, §4, §5

albino rabbits [5] = tested on: albino rabbits; design: method as in PMID 1263134, PMID 955835; conditions: topical eye drops; cited from earlier work
pigmented rabbits [6] = tested on: pigmented rabbits; design: method as in PMID 1263134, PMID 955835; conditions: topical eye drops; cited from earlier work
pigmented rabbits [7] = tested on: pigmented rabbits; design: method as in PMID 37130851; conditions: intracameral injections; cited from earlier work
[8] = topical, rabbits; cited from earlier work
albino rabbits [9] = tested on: albino rabbits; design: method as in PMID 31515057, PMID 34274401; conditions: cited from earlier work
albino rats = tested on: albino rats; design: method as in PMID 25481859; conditions: cited from earlier work

| Structure (SMILES) | Melanin binding classification [1] | Kd [1] [µM] | Ki [2] [nM] | ratio (AUCpigm/AUCalbino) of IOP response [3] | AUC0-last ± SD in albino rabbits (IOP decrease vs time) [4] [mmHg x h] | other results |
| --- | --- | --- | --- | --- | --- | --- |
| CN1[C@@H]2CC[C@H]1C[C@@H](OC(=O)C(CO)c1ccccc1)C2 (some centres unmarked) [Atropine] |  | 758 ± 848 |  |  |  | duration of mydriatic effect (albino rabbits [5]): 43.5 h; duration of mydriatic effect (pigmented rabbits [6]): > 96 h |
| Brc1c(NC2=NCCN2)ccc2nccnc12 [Brimonidine, reference compound] | high (high (<65 μM)) | 25 |  |  |  | duration of IOP decrease (pigmented rabbits [7]): 7 days |
| CCN[C@H]1CN(CCCOC)S(=O)(=O)c2sc(S(N)(=O)=O)cc21 [Brinzolamide] |  |  |  |  |  | absolute ocular bioavailability [8]: 0.10% |
| CCN[C@H]1C[C@H](C)S(=O)(=O)c2sc(S(N)(=O)=O)cc21 [Dorzolamide, reference compound] | intermediate (intermediate (65–650 μM)) |  |  |  | 15.55 ± 10.64 | duration of IOP-responses (albino rabbits [9]): ~6 h; duration of IOP-responses (albino rats): ~4 h; IOP reduction in normotensive pigmented rabbits ([3]; Chinchilla Bastard rabbits with normal (low) ocular pressure, before triamcinolone): no IOP reduction; duration of IOP decrease ([4]; albino rabbits, single eye drop (0.5–1% CAI, 2% dorzolamide)): < 8 h |

Continued, in another order:

| Melanin binding classification [1] | Kd [1] [µM] | Structure (SMILES) | Ki [2] [nM] | ratio (AUCpigm/AUCalbino) of IOP response [3] | AUC0-last ± SD in albino rabbits (IOP decrease vs time) [4] [mmHg x h] | other results |
| --- | --- | --- | --- | --- | --- | --- |
| intermediate (intermediate (65–650 μM)) | 176 ± 159 | NS(=O)(=O)c1ccc(-n2ncc(N3CCCCCC3)cc2=O)cc1 [A12] | 0.06 ± 0.001 | 9.0 | 13.80 ± 10.06 |  |
| low (low binders (>650 μM)) |  | NS(=O)(=O)c1ccc(-n2ncc(N3CCOCC3)cc2=O)cc1 [A22] | 0.55 ± 0.01 | 8.4 | 10.50 ± 8.73 | AUC0-last ± SD in pigmented rabbits (IOP decrease vs time) ([3]; hypertensive (triamcinolone) rabbits, single 25 μL eye drop, CAI 0.5 or 1.0%, dorzolamide 2%, n = 5): 88.10 ± 63.04 mmHg × h |
